{
  "source": "patent US20040053270A1",
  "about": "“RNA binding compounds and uses thereof” (priority 2000, published 2004)",
  "test_system": "E. coli ribosomes",
  "conditions": "20 nM competitor, 20 nM oxazolidinone-TAMRA reporter",
  "procedure": "The interaction between oxazolidinone-TAMRA and E. coli ribosomes was monitored by comparing the change in fluorescence anisotropy in the presence and absence of 100 μM non-fluorescent oxazolidinone competitor. Each measurement was made in a 400 μl cuvette, in a Perkin Elmer LS50B fluorimeter. Increasing amounts of ribosomes (corresponding to the amounts shown in FIG. 6) were added to a solution of 20 nM oxazolidinone-TAMRA in the presence of 50 mM Tris.HCl pH 7.5, 70 mM NH4Cl, 30 mM KCl, 7 mM MgCl2, 1 mM DTT, 0.5 mM EDTA. For each titration point an anisotropy measurement was acquired using an excitation wavelength of 554 nm with the excitation slits set to 10 nm and an emission wavelength of 575 nm with the emission slits set to 10 nm.\nThe same experiment was performed, but using 20 nM non-fluorescent linezolid (an oxazolidinone) as the competitor.",
  "data": [
    {"smiles": "CC(=O)NC[C@H]1CN(c2ccc(N3CCOCC3)c(F)c2)C(=O)O1", "note": "[linezolid]", "values": [
      {"measurement": "anisotropy upon addition of the ribosomes in the presence of competitor", "result": "considerably reduced"}
    ]}
  ]
}
